Our source for the mortality values is patent publication US20020132813A1, “Heterocyclylalkylazole derivatives and their use as pesticides” (priority 2000, published 2002).

For assay [1], the system named is black bean aphids (Aphis fabae). The assay can be described thus: Black bean aphid test: plants and aphids immersed in solution of the formulated preparation. It is filed as in vivo. The conditions noted are these: read-out: mortality of the aphids. The protocol:
Pregerminated field bean seeds (Vicia faba) with seminal roots were transferred into amber glass bottles filled with tap water and then populated with approximately 100 black bean aphids (Aphis fabae). The plants and aphids were then immersed for 5 seconds in an aqueous solution of the formulated preparation to be tested. After the solution had been allowed to run off, the plants and animals were stored in a controlled-environment cabinet (16 hours light/day, 25° C., 40-60% atmospheric humidity). After storage for 3 and 6 days, the effect of the preparation on the aphids was determined.

The test system is the same in assay [2]. The assay can be described thus: Black bean aphid root-systemic test: solution pipetted into the bottle holding the field bean roots. Conditions: read-out: mortality of the aphids owing to the root-systemic activity. It is filed as in vivo. Here is the method:
Pregerminated field bean seeds (Vicia faba) with seminal roots were transferred into amber glass bottles filled with tap water. Four milliliters of an aqueous solution of the formulated preparation to be tested were pipetted into the amber glass bottle. Then, the field bean was infested with approx. 100 black bean aphids (Aphis fabae). The plant and animals were then stored in a controlled-environment cabinet (16 hours light/day, 25° C., 40-60% atmospheric humidity). After storage for 3 and 6 days, the root-systemic action of the preparation on the aphids was determined. At a concentration of 300 ppm (based on active substance content), the preparations of Examples No. 1, 8, 20, 28, 30, 34, 36, 40, 52, 54, 56, 58, 118, 138, 146, 148, 154, 158, 176, 184, 368, 369, 370 caused 90-100% mortality of the aphids owing to the root-systemic activity.

On to `FC(F)(F)c1ccncc1-c1nc(CC2OCCCO2)no1` [Example 8, 3-(1,3-Dioxan-2-ylmethyl)-5-(4-trifluoromethyl-3-pyridyl)-1,2,4-oxadiazole], for which the mortality at 300 ppm in assay [1] and in assay [2] was 90 to 100% in each case.
